{"source": "patent US20260207761A1", "about": "“USE OF DRUG CONJUGATE IN TREATMENT OF TUMOR DISEASE AND METHOD” (priority 2023, published 2026)", "key": {"[1]": {"conditions": "for exposure to toxin molecules: 50 mg/kg, after the last administration"}, "[2]": {"test": "Trial Example 4: pharmacokinetic study, dose-escalation cohort"}, "[3]": {"conditions": "conjugate A 25 mg/kg, female, Day 1"}, "[4]": {"conditions": "conjugate A 25 mg/kg, female, Day 43"}, "[5]": {"conditions": "conjugate A 25 mg/kg, male, Day 1"}, "[6]": {"conditions": "conjugate A 25 mg/kg, male, Day 43"}, "[7]": {"conditions": "conjugate A 50 mg/kg, female, Day 1"}, "[8]": {"conditions": "conjugate A 50 mg/kg, female, Day 43"}, "[9]": {"conditions": "conjugate A 50 mg/kg, male, Day 1"}, "[10]": {"conditions": "conjugate A 50 mg/kg, male, Day 43"}, "[11]": {"conditions": "conjugate A 75 mg/kg, female, Day 1"}, "[12]": {"conditions": "conjugate A 75 mg/kg, female, Day 43"}, "[13]": {"conditions": "conjugate A 75 mg/kg, male, Day 1"}, "[14]": {"conditions": "conjugate A 75 mg/kg, male, Day 43"}}, "note": "Like-named read-outs stand apart in the source and are kept apart here."}
{"smiles": "CC[C@@]1(O)C(=O)OCc2c1cc1n(c2=O)Cc2c-1nc1ccccc1c2CCN(C(C)C)S(C)(=O)=O", "note": "[toxins]", "values": [{"measurement": "exposure to toxin molecules", "setting": "[1]; female monkeys", "result": 5860, "unit": "ng·h/mL"}, {"measurement": "exposure to toxin molecules", "setting": "[1]; male monkeys", "result": 3850, "unit": "ng·h/mL"}, {"measurement": "AUClast of toxins", "setting": "[1]; [3]", "result": 1430, "unit": "ng·h/mL"}, {"measurement": "Cmax of toxins", "setting": "[1]; [3]", "result": 38.3, "unit": "ng/mL"}, {"measurement": "AUClast of toxins", "setting": "[1]; [4]", "result": 1860, "unit": "ng·h/mL"}, {"measurement": "Cmax of toxins", "setting": "[1]; [4]", "result": 65.1, "unit": "ng/mL"}, {"measurement": "AUClast of toxins", "setting": "[1]; [5]", "result": 1790, "unit": "ng·h/mL"}, {"measurement": "Cmax of toxins", "setting": "[1]; [5]", "result": 49.0, "unit": "ng/mL"}, {"measurement": "AUClast of toxins", "setting": "[1]; [6]", "result": 2570, "unit": "ng·h/mL"}, {"measurement": "Cmax of toxins", "setting": "[1]; [6]", "result": 64.5, "unit": "ng/mL"}, {"measurement": "AUClast of toxins", "setting": "[1]; [7]", "result": 3970, "unit": "ng·h/mL"}, {"measurement": "Cmax of toxins", "setting": "[1]; [7]", "result": 113, "unit": "ng/mL"}, {"measurement": "AUClast of toxins", "setting": "[1]; [8]", "result": 3850, "unit": "ng·h/mL"}, {"measurement": "Cmax of toxins", "setting": "[1]; [8]", "result": 127, "unit": "ng/mL"}, {"measurement": "AUClast of toxins", "setting": "[1]; [9]", "result": 4490, "unit": "ng·h/mL"}, {"measurement": "Cmax of toxins", "setting": "[1]; [9]", "result": 94.0, "unit": "ng/mL"}, {"measurement": "AUClast of toxins", "setting": "[1]; [10]", "result": 5860, "unit": "ng·h/mL"}, {"measurement": "Cmax of toxins", "setting": "[1]; [10]", "result": 146, "unit": "ng/mL"}, {"measurement": "AUClast of toxins", "setting": "[1]; [11]", "result": 5120, "unit": "ng·h/mL"}, {"measurement": "Cmax of toxins", "setting": "[1]; [11]", "result": 132, "unit": "ng/mL"}, {"measurement": "AUClast of toxins", "setting": "[1]; [12]", "result": 4680, "unit": "ng·h/mL"}, {"measurement": "Cmax of toxins", "setting": "[1]; [12]", "result": 137, "unit": "ng/mL"}, {"measurement": "AUClast of toxins", "setting": "[1]; [13]", "result": 5420, "unit": "ng·h/mL"}, {"measurement": "Cmax of toxins", "setting": "[1]; [13]", "result": 132, "unit": "ng/mL"}, {"measurement": "AUClast of toxins", "setting": "[1]; [14]", "result": 4080, "unit": "ng·h/mL"}, {"measurement": "Cmax of toxins", "setting": "[1]; [14]", "result": 110, "unit": "ng/mL"}, {"measurement": "plasma exposure of the free payload, AUC, relative to conjugate A", "setting": "[2]; first 4-week period", "result": "~5", "unit": "%"}, {"measurement": "plasma exposure of the free payload, Cmax, relative to conjugate A", "setting": "[2]; first 4-week period", "result": "about 6%"}, {"measurement": "half-life", "setting": "[2]; patients, biweekly dosing regimen", "result": "~49", "unit": "h"}]}
